Broadly, the melting point is the temperature, or range, at which the solid turns liquid.

In turn, `O=[N+]([O-])c1cc(-c2nnc(Nc3ccc(Cl)c(Cl)c3)s2)cc([N+](=O)[O-])c1` had a melting point of 305 to 306 °C.

In turn, `COC(=O)CCc1ccc(OCc2cccc(/C=C/c3ccccc3)c2)cc1` returned a melting point of 100 to 101 °C.

On to `Cc1[nH]c2ccc(S(=O)(=O)c3ccc(C(F)(F)F)cc3)cc2c1CCNC(=O)OC(C)(C)C`, for which the melting point is 162 to 164 °C.

Take `Nc1c(OC[C@@H]2CO2)cccc1[N+](=O)[O-]`: the melting point was 107 to 109 °C.

With `CCCCc1nc(Cl)c(C(=O)NC)n1Cc1ccc2oc(-c3ccccc3NS(=O)(=O)C(F)(F)F)c(Br)c2c1`, the melting point fell in the range of 89 to 92 °C.

For the compound `COc1ccc(C2(C#N)CCC(C(=O)O)CC2)c2c1oc1ccccc12` (stereo not drawn), the melting point lay in the range of 194 to 196 °C.

Regarding `COc1cc(OC)c2c(C)c(CCN3CCN(c4ccccc4OC)CC3)c(=O)oc2c1`, the melting point is 140 to 142 °C.

`CCCCNC(=O)NS(=O)(=O)c1c(C(=O)OCC)c(Cl)nn1C` came in with a melting point of 109 to 111 °C.

`CC(C)(C)OC(=O)Cn1c(=O)n(Cc2ccccc2)c2ccccc21` had a melting point of 99 to 100 °C.

For `CCC(=O)NC(C)(C)C`, the melting point was in the range of 90 to 92 °C.

In turn, `C=C(C)C(=O)Oc1ccc(/C=C/C(=O)OC)cc1` came in with a melting point of 76 to 80 °C.

Compound `CCOC(=O)c1ccc2[nH]c3c(c2c1)CC(N(C)C)CC3` (stereo not drawn) registered a melting point of 188 to 190 °C.

Compound `O=C(O)CN(CC(=O)O)c1cc(OCCCCCCCCCCCCOc2ccccc2)cc(OCCCCCCc2cccc(O)c2O)c1` had a melting point of 129 to 131 °C.

For `CCOc1nc2cccc(C(=O)OC)c2n1Cc1ccc(-c2ccccc2C(N)=O)cc1`, the melting point is 198 to 199 °C.

Take `Cc1coc(Cc2ccc([N+](=O)[O-])cc2)n1`: the melting point is 67 to 68 °C.

`O=CCCNC(=O)CN1CCN(CC(=O)O)CCN(CC(=O)O)CCN(CC(=O)O)CC1` displayed a melting point of 115 to 120 °C.

As for `NS(=O)(=O)c1ccccc1CSC1=NCCS1`, the melting point lay in the range of 123 to 125 °C.

Compound `Cc1ccnc2c([N+](=O)[O-])cc(Cc3cnc(N)nc3N)cc12` displayed a melting point of 256 to 258 °C.

`COc1ccc(Cl)cc1C(C)(C)O` returned a melting point of 56 °C.

The compound `COC(=O)c1cccc(NC(=O)c2ccccc2)c1O` registered a melting point of 105 °C.

`O=C(O)/C=C/c1ccc(C(=O)NC2CCCCC2)cc1`: the melting point came to 214 °C.

Compound `Nc1c(Cl)cc2nc(O)c(O)nc2c1[N+](=O)[O-]` displayed a melting point of over 300 °C.

For the compound `COc1nc2cc(C)c(Cl)c(NS(C)(=O)=O)c2nc1OC`, the melting point stood at 198 °C.

With `C#CCOCC1=C(C(=O)OCC)C(c2cccc(Cl)c2Cl)C(C(=O)OC)=C(C)N1` (stereo not drawn), the melting point lay in the range of 104 to 105 °C.

In the case of `c1ccc(CN2C[C@H]3CCCC[C@@]3(Cc3ccccc3)C2)cc1` (relative stereo), the melting point fell in the range of 156 to 158 °C.

In turn, `CC(C)(C)OC(=O)N1CCc2cc3nccnc3cc2CC1` returned a melting point of 107 to 109 °C.

On to `O=C1CN(Cc2ccccc2)C(=S)N1`, for which the melting point was 150 to 152 °C.

In the case of `C#Cc1cnn2c(C(F)F)cc(-c3ccc(Cl)c(C)c3)nc12`, the melting point turned out to be 143 °C.

Regarding `Cn1cncc1C(O)(c1ccc(Cl)cc1)c1cc2c3c(c1)c(-c1cccc(Cl)c1)cc(=O)n3CC2` (stereo not drawn), the melting point came to 214 °C.

The compound `CN(C[C@H]1CC[C@H](C#CCO)CC1)C(=O)OC(C)(C)C` registered a melting point of 97 to 99 °C.

Compound `Cc1c(Br)c(O)c(Cc2ccc(C(C)C)cc2)c(C)c1N(Cc1ccccc1)C(=O)CC(C)(C)C` showed a melting point of 107 to 108 °C.

For `OC(CCN1CCN(c2ccccc2)CC1)COc1ccccc1Cl` (stereo not drawn), the melting point was in the range of 100 to 102 °C.

Consider `CC(O)CNc1c(Br)cnc2cc(Cl)ccc12` (stereo not drawn), for which the melting point lay within 161 to 163 °C.

Compound `O=C(CCCCCl)c1ccccc1` returned a melting point of 49 to 50 °C.

Take `CNC(=O)N(O)Cc1cc2ccccc2s1`: the melting point was in the range of 160 to 161 °C.

For `Clc1cccc2c(CN3CC=C(CCc4ccccc4)CC3)n[nH]c12`, the melting point fell in the range of 171 to 172 °C.

The compound `NC(=O)C1(Nc2ccccc2)CCN([C@H]2CCc3ccccc32)CC1` yielded a melting point of 194 to 195 °C.

For `COCCNC(=NC#N)Nc1ccc(C2=NNC(=O)CC2C)cc1` (stereo not drawn), the melting point fell in the range of 196 to 197 °C.

`Cc1cc(=O)n(-c2cc(N)c(Cl)cc2F)c(=O)n1C` showed a melting point of over 220 °C.

For `CSc1c(O[C@H]2CC[C@@H](N(C)C)CC2)ccc2[nH]ncc12`, the melting point was in the range of 139 to 140 °C.

For the compound `CC(Nc1ccc([N+](=O)[O-])cc1)c1ccccc1` (stereo not drawn), the melting point lay in the range of 95 to 96 °C.

`CC(C)(C)Cn1c(=O)c(=O)[nH]c2cc([N+](=O)[O-])c(N)cc21` yielded a melting point of over 300 °C.

Compound `COc1ccc(Cl)cc1C(=O)NCCC1CCN(S(=O)(=O)NC(=S)NC2CCCCC2)CC1` returned a melting point of 146 to 148 °C.

For `CN(C)CCNS(=O)(=O)c1cc(NC(=O)c2cnn3c(C(F)F)cc(-c4ccc(C(F)(F)F)cc4)nc23)c(Cl)s1`, the melting point was 162 °C.

For `CNC(c1nc(-c2ccc3c(c2)Nc2ccccc2S3)cs1)C(C)C` (stereo not drawn), the melting point worked out at 130 °C.

On to `CC1(C)C(=O)C(c2ccc(S(C)(=O)=O)cc2)=C1c1ccc(S(C)(=O)=O)cc1`, for which the melting point turned out to be 212 °C.

The compound `COc1ccc(CNC(=S)SC)cc1` registered a melting point of 67 to 70 °C.

For the compound `COc1cc(/C=C2/C(C)=C(CC(=O)O)c3cc(F)ccc32)cc(OC)c1OC`, the melting point was 149 to 152 °C.

For `O=C(Nc1ccc2c(c1)OCCO2)NC12CC3CC(CC(C3)C1)C2`, the melting point lay within 230 to 236 °C.

For the compound `COc1cc2nc(S(=O)Cc3ncc(C)c(N(C)C)c3Cl)[nH]c2cc1OC` (stereo not drawn), the melting point lay in the range of 174 to 175 °C.

For the compound `CC(C)n1nc(-c2cnc(N)nc2-c2cccc(C(F)(F)F)c2)ccc1=O`, the melting point was in the range of 164 to 165 °C.

Compound `CC(C)(C)C(NC(=O)c1cccc2c1-c1ccccc1C2=O)Nc1c(Nc2cccnc2)c(=O)c1=O` (stereo not drawn) showed a melting point of 201 to 202 °C.

As for `C=CCS(=O)(=O)c1ccc(NC(C)=O)cc1`, the melting point lay within 116 to 118 °C.

As for `CCOC(=O)NCCN1CCC(n2c(=O)[nH]c3cc(Cl)ccc32)CC1`, the melting point turned out to be 188 °C.

For `COC(=O)c1ccc(-c2nn(Cc3ccccc3)c3ccc([N+](=O)[O-])cc23)o1`, the melting point is 134 to 135 °C.

`CC(c1ncnc(Cl)c1F)C(O)(Cn1cncn1)c1ccc(F)cc1F` (stereo not drawn) showed a melting point of 92 °C.

Consider `O=C(NC(C(=O)O)c1ccccc1)c1ccccc1SSc1ccccc1C(=O)NC(C(=O)O)c1ccccc1` (stereo not drawn), for which the melting point is 231 to 232 °C.

Compound `Cn1cc(C(=O)Nc2ccccc2-c2ccc(Cl)c(Cl)c2)c(C(F)(F)F)n1` returned a melting point of 131 to 133 °C.

Consider `CCS(=O)(=O)N[C@H]1CC[C@H](CCN2CCN(c3nccc4c3OCC4)CC2)CC1`, for which the melting point was found to be 190 °C.

As for `NC(=O)C1CCC2(CC1)OCCO2`, the melting point fell in the range of 167 to 170 °C.

`CCC(=Cc1ccc(C(=O)O)cc1Cl)[N+](=O)[O-]` showed a melting point of 179 to 180 °C.

In turn, `Cn1nc(-c2cc(C(=O)O)c(Cl)cc2F)c(Cl)c1OC(F)F` came in with a melting point of 137 to 140 °C.

For the compound `Cc1nn(C)c(CBr)c1Oc1cc(Cl)cc(C#N)c1`, the melting point was 76 to 78 °C.

Source of the values: a melting point compilation (Tetko et al.; mined from patent text by program, amines drawn as free bases though some values may be those of a salt).
